Source: patent US10005808B2, “Crystal of alkali metal N-acetylneuraminate anhydrate, and process for producing same” (KYOWA HAKKO BIO CO., LTD., priority 2014, dated 2018)

Columns and labels:
[1] = normal temperature / storage; cited from earlier work
[2] = normal temperature; cited from earlier work
[3] = Degree of coloration when stored in a closed system at 60° C. (transmittance T% 430 nm); assay type: physicochemical
Experimental: (§1) With respect to the crystal of NeuAc sodium salt anhydrate and a crystal of known NeuAc dihydrate, the degree of coloration when stored in a closed system at 60° C. was compared, and the results are shown in Table 7. The degree of coloration is expressed by transmittance T % 430 nm=100×10^−A (A=Abs: 430 nm, 1 cm).
as §1, with “potassium” for “sodium”, “14.” for “7.”

[4] = Measurement of degree of solubility in water (HPLC of supernatant); assay type: physicochemical; conditions: various temperatures, FIG. 5 / FIG. 10, result in words
Experimental: (2) Measurement of Degree of Solubility
A crystal of NeuAc sodium salt anhydrate, a crystal of NeuAc potassium salt anhydrate, or a crystal of known NeuAc dihydrate was added to water adjusted to respective temperatures until each crystal was caused to remain undissolved and after keeping the solution for a sufficient time under stirring, the supernatant containing no crystal was collected and measured for the concentration by using the following HPLC analysis conditions.
Guard column: Shodex SUGAR SH-G ϕ6.0×50 mm
Column: SUGAR SH1011 ϕ8.0×300 mm×2 columns in series
Column temperature: 60° C.
Buffer: an aqueous 0.005 mol/L sulfuric acid solution
Flow velocity: 0.6 mL/min
Detector: UV detector (wavelength: 210 nm)
The degrees of solubility in water of the crystal of NeuAc sodium salt anhydrate obtained above and a crystal of NeuAc dihydrate are illustrated in FIG. 5.
The degrees of solubility in water of the crystal of NeuAc potassium salt anhydrate obtained above and a crystal of NeuAc dihydrate are illustrated in FIG. 10.

[5] = pH of aqueous solution of the crystal at 100 g/L; assay type: physicochemical
Experimental: As for the pH, an aqueous solution at 100 g/L in terms of NeuAc sodium salt was measured.
As for the pH, an aqueous solution at 100 g/L in terms of NeuAc potassium salt was measured.

[6] = Weight change (moisture absorption) under an atmosphere of 25° C. and humidity 66%; assay type: physicochemical; conditions: humidity 66%; for weight increase due to moisture absorption (in words): up to 24 hours
Experimental: With respect to the crystal of NeuAc sodium salt anhydrate and the noncrystalline amorphous of NeuAc sodium salt acquired in Reference Example 1, the weight change under an atmosphere of 25° C. and humidity 66% was compared, and the results are shown in Table 3.
With respect to the crystal of NeuAc potassium salt anhydrate and the noncrystalline amorphous of NeuAc potassium salt acquired in Reference Example 2, the weight change under an atmosphere of 25° C. and humidity 66% was compared, and the results are shown in Table 10.

Compound | storage stability (in words) [1] | Transmittance T % 430 nm ([3]; elapsed time 0 days, Table 7) [%] | Transmittance T % 430 nm ([3]; elapsed time 0 days, Table 14) [%] | Transmittance T % 430 nm ([3]; elapsed time 3 days, Table 7) [%] | Transmittance T % 430 nm ([3]; elapsed time 3 days, Table 14) [%] | Transmittance T % 430 nm ([3]; elapsed time 6 days, Table 7) [%] | Transmittance T % 430 nm ([3]; elapsed time 6 days, Table 14) [%] | degree of solubility in water compared with crystal of known NeuAc dihydrate [4] | coloration during storage compared with crystal of known NeuAc dihydrate (in words) [3] | further results
CC(=O)N[C@H]1[C@H]([C@H](O)[C@H](O)CO)OC(O)(C(=O)O)C[C@@H]1O (some centres unmarked) [Crystal of dihydrate, N-Acetylneuraminic acid, reference compound] | gradually discolored to dark brown | 100.1 | 100.1 | 73.26 | 73.26 | 50.46 | 50.46 | – | – | degree of solubility [2]: about 100 g/L
CC(=O)N[C@H]1[C@H]([C@H](O)[C@H](O)CO)OC(O)(C(=O)[O-])C[C@@H]1O.[K+] (some centres unmarked) [Crystal of potassium salt, NeuAc potassium salt anhydrate] | – | – | 99.90 | – | 99.73 | – | 99.63 | excellent solubility | extremely low | pH ([5]; aqueous solution at 100 g/L in terms of NeuAc potassium salt, listed as Example 4): 6.6; pH ([5]; aqueous solution at 100 g/L in terms of NeuAc potassium salt, listed as Example 5): 6.5; Rate of Weight Change ([6]; elapsed time 0 h, Table 10): 0.00%; Rate of Weight Change ([6]; elapsed time 3 h, Table 10): 0.06%; Rate of Weight Change ([6]; elapsed time 7 h, Table 10): 0.00%; Rate of Weight Change ([6]; elapsed time 24 h, Table 10): −0.06%; weight increase due to moisture absorption (in words) ([6]; listed as crystal of NeuAc potassium salt anhydrate): a weight increase was not recognized
CC(=O)N[C@H]1[C@H]([C@H](O)[C@H](O)CO)O[C@](O)(C(=O)[O-])C[C@@H]1O.[Na+] [Crystal of sodium salt, NeuAc sodium salt anhydrate] | – | 99.98 | – | 100.0 | – | 100.0 | – | excellent solubility | extremely low | pH ([5]; aqueous solution at 100 g/L in terms of NeuAc sodium salt, listed as Example 1): 6.74; pH ([5]; aqueous solution at 100 g/L in terms of NeuAc sodium salt, listed as Example 2): 6.8; Rate of Weight Change ([6]; elapsed time 0 h, Table 3): 0.00%; Rate of Weight Change ([6]; elapsed time 3 h, Table 3): −0.04%; Rate of Weight Change ([6]; elapsed time 7 h, Table 3): −0.02%; Rate of Weight Change ([6]; elapsed time 24 h, Table 3): −0.04%; weight increase due to moisture absorption (in words) ([6]; listed as crystal of NeuAc sodium salt anhydrate): a weight increase was not recognized
CC(=O)N[C@H]1[C@H]([C@H](O)[C@H](O)CO)OC(O)(C(=O)[O-])C[C@@H]1O.O.O.O.[Na+] (some centres unmarked) [NeuAc sodium salt trihydrate] | high storage stability at normal temperature | – | – | – | – | – | – | – | – | –
CC(=O)N[C@H]1[C@H]([C@H](O)[C@H](O)CO)O[C@](O)(C(=O)[O-])C[C@@H]1O.[Na+] [Reference Example 1, NeuAc sodium salt, reference compound] | – | – | – | – | – | – | – | – | – | weight increase due to moisture absorption (in words) ([6]; listed as noncrystalline amorphous of NeuAc sodium salt, sodium salt): marked weight increase due to moisture absorption and deliquesced when 24 hours had passed
CC(=O)N[C@H]1[C@H]([C@H](O)[C@H](O)CO)OC(O)(C(=O)[O-])C[C@@H]1O.[K+] (some centres unmarked) [Reference Example 2, NeuAc potassium salt, reference compound] | – | – | – | – | – | – | – | – | – | weight increase due to moisture absorption (in words) ([6]; listed as noncrystalline amorphous of NeuAc potassium salt, potassium salt): marked weight increase due to moisture absorption and deliquesced when 24 hours had passed
